Data taken from patent publication US7101681B1, “Nuclear hormone receptor drug screens” (Amgen, Inc., priority 1997, dated 2006).

Assays:
[1] = test system: RXR; assay: Fluorescent polarization assay, labeled peptide sensor binding to RXR; details: for Sensors Activity: Fluorescent Polarization Assay RXR: graded symbols O, I to IV, key not given
Method: (§1) I. High-Throughput In Vitro Fluorescence Polarization Assay
(§2) • Sensor: Rhodamine-labeled L1X1X2L2L3 peptide (final conc.=1–5 nM) • Receptor: Glutathione-S-transferase/nuclear hormone receptor ligand binding domain fusion protein (final conc.=100–200 nM) • Buffer: 10 mM HEPES, 10 mM NaCl, 6 mM magnesium chloride, pH 7.6 Protocol: • 1. Add 90 microliters of peptide/NHR mixture to each well of a 96-well microtiter plate. • 2. Add 10 microliters of test compound per well. • 3. Shake 5 min and within 5 minutes determine amount of fluorescence polarization by using a Fluorolite FPM-2 Fluorescence Polarization Microtiter System (Dynatech Laboratories, Inc). II. Conformational Sensor—ELISA Format Assay Buffer and Solution Preparation: […]

[2] = biological target: T1, PPARγ (Homo sapiens, UniProt P37231); assay: Fluorescent polarization assay, labeled peptide sensor binding to PPARγ; details: graded symbols O, I to IV, key not given
T1 sequence (P37231 238-503 limits assumed): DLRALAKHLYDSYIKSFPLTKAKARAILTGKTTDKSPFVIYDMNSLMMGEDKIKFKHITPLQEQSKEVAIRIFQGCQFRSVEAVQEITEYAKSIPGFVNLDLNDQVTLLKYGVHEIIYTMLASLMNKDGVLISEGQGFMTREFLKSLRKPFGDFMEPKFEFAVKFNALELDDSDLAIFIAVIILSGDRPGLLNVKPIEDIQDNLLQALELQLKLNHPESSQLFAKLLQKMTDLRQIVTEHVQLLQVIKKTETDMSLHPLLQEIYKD
Method: as §1, §2

[3] = test system: LXR; assay: Fluorescent polarization assay, labeled peptide sensor binding to LXR; details: for Sensors Activity: Fluorescent Polarization Assay LXR: graded symbols O, I to IV, key not given
Method: as §1, §2

Row | Compound | Sensors Activity: Fluorescent Polarization Assay RXR [1] | Sensors Activity: Fluorescent Polarization Assay LXR [3] | other results
1 | 9-cis-retinoic acid [reference compound] |  |  | RXR receptor affinity for labeled peptide sensor ([1]; ligand at 1 μM, dose response, FIG. 3): increases
2 | TUK-1455: labeled peptide sensor R-LRYLLD (SEQ ID NO:5), SRC-1 749–754 (R label) |  |  | Sensors Activity: Fluorescent Polarization Assay PPARγ [2]: I+
3 | TUK-1373: labeled peptide sensor R-G-ILHRLLQE, SRC-1 689–696 | II+ |  | 
4 | TUK-1473: labeled peptide sensor R-QLLRYLLDKD (SEQ ID NO:9), SRC-1 747–756 (label R) | I+ |  | Sensors Activity: Fluorescent Polarization Assay PPARγ [2]: I+
5 | TUK-1557: labeled peptide sensor R-ILKKLLQE (SEQ ID NO:17), synthetic sequence peptide (label R) |  | III+ | 
6 | TUK-1393: labeled peptide sensor R-G-LLRYLLDK, SRC-1 748–755 | II+ | III+ | 
7 | TUK-1376: labeled peptide sensor F-G-VTLLQLLLG, RIP-140 496–506 |  | II+ | 
8 | TUK-1381: labeled peptide sensor R-LLQQLLTE, SRC-1 1434–1441 | I+ |  | Sensors Activity: Fluorescent Polarization Assay PPARγ [2]: I+
9 | TUK-1453: labeled peptide sensor R-LLRYLLD (SEQ ID NO:4), SRC-1 748–754 (R label) | I+ |  | 
10 | TUK-1371: labeled peptide sensor R-ILHRLLQE, SRC-1 689–696 |  |  | Sensors Activity: Fluorescent Polarization Assay PPARγ [2]: I+
11 | CC(C)C(=O)CC[C@@H](C)[C@H]1CC[C@H]2[C@@H]3CC=C4C[C@@H](O)CC[C@]4(C)[C@H]3CC[C@]12C [24-ketocholesterol, reference compound] |  |  | LXR receptor affinity for labeled peptide sensor ([3]; ligand at 2 μM, dose response, FIG. 2): increases
12 | TUK-1392: labeled peptide sensor F-G-LLRYLLDK, SRC-1 748–755 |  | II+ | 
13 | TUK-1385: labeled peptide sensor R-KLVQLLTTT, SRC-1 632–640 | II+ | II+ | 
14 | TUK-1391: labeled peptide sensor R-LLRYLLDK, SRC-1 748–755 |  |  | Sensors Activity: Fluorescent Polarization Assay PPARγ [2]: II+
15 | TUK-1390: labeled peptide sensor F-LLRYLLDK (SEQ ID NO:3), SRC-1 748–755 (fluorescent label) | II+ |  | 
16 | TUK-1382: labeled peptide sensor F-G-LLQQLLTE, SRC-1 1434–1441 |  | II+ | 
17 | TUK-1380: labeled peptide sensor F-LLQQLLTE (SEQ ID NO:12), SRC-1 1434–1441 (fluorescent label) |  | II+ | 
